From PubChem BioAssay (NCI)
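Results reflect a 48-hour exposure of cells in 96-well plates to compound at five concentrations. TGI: total growth inhibition.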

Assays:
Test in all cases: NCI tumour cell line growth inhibition, 48 h
786-0 renal = test system: 786-0 renal
A498 renal = test system: A498 renal
A549 NSCLC = test system: A549 NSCLC
ACHN renal = test system: ACHN renal
CAKI-1 renal = test system: CAKI-1 renal
CCRF-CEM leukemia = test system: CCRF-CEM leukemia
COLO 205 colon = test system: COLO 205 colon
DLD-1 colon = test system: DLD-1 colon
DMS 114 small cell lung = test system: DMS 114 small cell lung
DMS 273 small cell lung = test system: DMS 273 small cell lung
EKVX NSCLC = test system: EKVX NSCLC
HCC-2998 colon = test system: HCC-2998 colon
HCT-116 colon = test system: HCT-116 colon
HCT-15 colon = test system: HCT-15 colon
HL-60(TB) leukemia = test system: HL-60(TB) leukemia
HOP-18 NSCLC = test system: HOP-18 NSCLC
HT29 colon = test system: HT29 colon
IGROV1 ovarian = test system: IGROV1 ovarian
K-562 leukemia = test system: K-562 leukemia
KM12 colon = test system: KM12 colon
KM20L2 colon = test system: KM20L2 colon
LOX IMVI melanoma = test system: LOX IMVI melanoma
LXFL 529 NSCLC = test system: LXFL 529 NSCLC
M14 melanoma = test system: M14 melanoma
M19-MEL melanoma = test system: M19-MEL melanoma
MALME-3M melanoma = test system: MALME-3M melanoma
MOLT-4 leukemia = test system: MOLT-4 leukemia
NCI-H226 lung = test system: NCI-H226 lung
NCI-H23 lung = test system: NCI-H23 lung
NCI-H460 lung = test system: NCI-H460 lung
OVCAR-3 ovarian = test system: OVCAR-3 ovarian
OVCAR-4 ovarian = test system: OVCAR-4 ovarian
OVCAR-5 ovarian = test system: OVCAR-5 ovarian
OVCAR-8 ovarian = test system: OVCAR-8 ovarian
RPMI-8226 leukemia = test system: RPMI-8226 leukemia
RXF 393 renal = test system: RXF 393 renal
RXF-631 renal = test system: RXF-631 renal
SF-268 CNS = test system: SF-268 CNS
SF-295 CNS = test system: SF-295 CNS
SF-539 CNS = test system: SF-539 CNS
SK-MEL-2 melanoma = test system: SK-MEL-2 melanoma
SK-MEL-28 melanoma = test system: SK-MEL-28 melanoma
SK-MEL-5 melanoma = test system: SK-MEL-5 melanoma
SK-OV-3 ovarian = test system: SK-OV-3 ovarian
SN12C renal = test system: SN12C renal
SNB-19 CNS = test system: SNB-19 CNS
SNB-75 CNS = test system: SNB-75 CNS
SW-620 colon = test system: SW-620 colon
TK-10 renal = test system: TK-10 renal
U251 CNS = test system: U251 CNS
UACC-257 melanoma = test system: UACC-257 melanoma
UACC-62 melanoma = test system: UACC-62 melanoma
UO-31 renal = test system: UO-31 renal
XF 498 CNS = test system: XF 498 CNS
HOP-62 NSCLC = test system: HOP-62 NSCLC
HOP-92 NSCLC = test system: HOP-92 NSCLC
SNB-78 CNS = test system: SNB-78 CNS

Measured: TGI

Cc1cc(C)cc(NC(=O)CCC(=O)C2CCC/C2=N\NC(=O)C(=O)NN)c1 (stereo unspecified)
not listed: HOP-62 NSCLC | HOP-92 NSCLC | SNB-78 CNS
> 100 µM: all other assays above

COc1ccc2c(c1)C(CCN)C(=O)N2 (stereo unspecified)
not listed: NCI-H226 lung | RXF 393 renal | SN12C renal | SNB-19 CNS | UO-31 renal
> 100 µM: all other assays above
